Measured values as given in the supplement of paper PMC10331698.
± gives the standard deviation of the averaged measurements.

Experiments:
Experiment in all cases: level (log10 ratio to DMSO vehicle control); higher = higher biomarker level / cell amount than vehicle control
[1] = compound: O=S(=O)(Cl)C(F)(F)C(F)(F)C(F)(F)C(F)(F)C(F)(F)C(F)(F)C(F)(F)C(F)(F)F [Perfluoro-1-octanesulfonyl chloride]; settings: in DMSO
Method: (§1)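 BioMAP Diversity Plus panel of 12 human primary cell co-culture systems (3C, 4H, LPS, SAg, BT, BF4T, BE3C, CASM3C, HDF3CGF, KF3CT, MyoF, Mphg). Compounds were added 1 h before stimulation and left for 24 h (MyoF 48 h; BT 72 h for soluble read-outs or 6 d for IgG). Biomarkers were read by ELISA, cytotoxicity by SRB, PBMC viability and proliferation by Alamar Blue. Each well value was divided by the mean of 8 DMSO control wells on the same plate and log10 transformed; duplicate blinded samples were tested at 4 concentrations.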

[2] = compound: O=C(O)C(F)(F)C(F)(F)C(F)(F)C(F)(F)C(F)(F)C(F)(F)C(F)(F)C(F)(F)C(F)(F)C(F)F [11-H-Perfluoroundecanoic acid]; settings: in DMSO
Method: as §1

Hexafluoroamylene glycol = compound: OCC(F)(F)C(F)(F)C(F)(F)CO [Hexafluoroamylene glycol]; settings: in DMSO
Method: as §1

[3] = compound: O=S(=O)(O)C(F)(F)C(F)(F)C(F)(F)C(F)(F)C(F)(F)C(F)(F)C(F)(F)C(F)(F)C(F)(F)C(F)(F)F [Sodium perfluorodecanesulfonate]; settings: in DMSO
Method: as §1

[4] = compound: NS(=O)(=O)C(F)(F)C(F)(F)C(F)(F)C(F)(F)C(F)(F)C(F)(F)F [Perfluorohexanesulfonamide]; settings: in DMSO
Method: as §1

[5] = compound: C=CC(=O)OCC(F)(F)C(F)(F)C(F)(F)COC(=O)C=C [1H,1H,5H,5H-Perfluoro-1,5-pentanediol diacrylate]; settings: 6700 nM; in DMSO
Method: as §1

[6] = compound: FC(F)(F)C(F)(F)C(F)(F)C(F)(F)C(F)(F)C(F)(F)CC1CO1 [3-(Perfluorohexyl)-1,2-epoxypropane]; settings: in DMSO
Method: as §1

[7] = compound: O=S(=O)(O)CCC(F)(F)C(F)(F)C(F)(F)C(F)(F)C(F)(F)C(F)(F)F [6:2 Fluorotelomer sulfonic acid]; settings: in DMSO
Method: as §1

Nonafluoropentanamide = compound: NC(=O)C(F)(F)C(F)(F)C(F)(F)C(F)(F)F [Nonafluoropentanamide]; settings: in DMSO
Method: as §1

[8] = compound: O=C(O)C=CC(F)(C(F)(F)F)C(F)(F)F [3-(Perfluoroisopropyl)-2-propenoic acid]; settings: in DMSO
Method: as §1

Heptafluorobutyl iodide = compound: FC(F)(F)C(F)(F)C(F)(F)CI [Heptafluorobutyl iodide]; settings: in DMSO
Method: as §1

Octafluoroadipamide = compound: NC(=O)C(F)(F)C(F)(F)C(F)(F)C(F)(F)C(N)=O [Octafluoroadipamide]; settings: in DMSO
Method: as §1

[9] = compound: FC(F)(F)C(F)(F)C(F)(F)CC1CO1 [1H,1H-Heptafluorobutyl epoxide]; settings: in DMSO
Method: as §1

[10] = compound: O=S(=O)(F)C(F)(F)C(F)(F)C(F)(F)C(F)(F)C(F)(F)C(F)(F)C(F)(F)C(F)(F)F [Perfluorooctanesulfonyl fluoride]; settings: in DMSO
Method: as §1

[11] = compound: FC(F)(F)C(F)(F)C(F)(F)C(F)(F)C(F)(F)C(F)(F)C(F)(F)I [1-Iodopentadecafluoroheptane]; settings: in DMSO
Method: as §1

[12] = compound: NC(=O)C(F)(F)C(F)(F)C(F)(F)C(F)F; settings: in DMSO
Method: as §1

[13] = compound: COC(=O)C(F)(F)C(F)(F)OC(F)(C(F)(F)F)C(F)(F)OC(F)=C(F)F [Methyl perfluoro(3-(1-ethenyloxypropan-2-yloxy)propanoate)]; settings: in DMSO
Method: as §1

[14] = compound: FC(F)(F)C(F)(F)CNCC(F)(F)C(F)(F)F [Bis(1H,1H-perfluoropropyl)amine]; settings: in DMSO
Method: as §1

[15] = compound: C=C(C)C(=O)OCCC(F)(F)C(F)(F)C(F)(F)C(F)(F)C(F)(F)C(F)(F)F [6:2 Fluorotelomer methacrylate]; settings: in DMSO
Method: as §1

For LPS:M-CSF, the “level (log10)” value ([1]; 6700 nM) was -0.079 ± 0.045, the “level (log10)” value ([1]; 20000 nM) was -0.0105 ± 0.025 and the “level (log10)” value ([1]; 60000 nM) was 0.116 ± 0.035. The “level (log10)” value ([2]; 6700 nM) was -0.0035 ± 0.018, the “level (log10)” value ([2]; 20000 nM) was 0.012 ± 0.038 and the “level (log10)” value (Hexafluoroamylene glycol; 6700 nM) was -0.0075 ± 0.016. The “level (log10)” value (Hexafluoroamylene glycol; 20000 nM) was 0.0115 ± 0.0078, the “level (log10)” value (Hexafluoroamylene glycol; 60000 nM) was -0.003 ± 0.035 and the “level (log10)” value ([3]; 1500 nM) was 0.0045 ± 0.021. The “level (log10)” value ([3]; 4400 nM) was 0.005 ± 0.0057, the “level (log10)” value ([3]; 13000 nM) was 0.01 ± 0.027 and the “level (log10)” value ([3]; 40000 nM) was -0.006 ± 0.037. The “level (log10)” value ([4]; 6700 nM) was -0.022 ± 0.016, the “level (log10)” value ([4]; 20000 nM) was -0.0155 ± 0.0021 and the “level (log10)” value ([4]; 60000 nM) was -0.081 ± 0.0057. For the same test system, the “level (log10)” value [5] was -0.0655 ± 0.026, the “level (log10)” value ([6]; 6700 nM) was -0.004 ± 0.0099 and the “level (log10)” value ([6]; 20000 nM) was -0.013 ± 0.0028. The “level (log10)” value ([6]; 60000 nM) was 0.0055 ± 0.0035, the “level (log10)” value ([7]; 6700 nM) was -0.0045 ± 0.015 and the “level (log10)” value ([7]; 20000 nM) was 0.004 ± 0.03. For the same test system, the “level (log10)” value ([7]; 60000 nM) was 0.0485 ± 0.039, the “level (log10)” value (Nonafluoropentanamide; 6700 nM) was 0.0065 ± 0.07 and the “level (log10)” value (Nonafluoropentanamide; 20000 nM) was -0.0075 ± 0.04. For the same test system, the “level (log10)” value (Nonafluoropentanamide; 60000 nM) was -0.011 ± 0.0042, the “level (log10)” value ([8]; 6700 nM) was -0.011 ± 0.041 and the “level (log10)” value ([8]; 20000 nM) was -0.0065 ± 0.0092. The “level (log10)” value ([8]; 60000 nM) was 0.0035 ± 0.0035, the “level (log10)” value (Heptafluorobutyl iodide; 6700 nM) was -0.0225 ± 0.0064 and the “level (log10)” value (Heptafluorobutyl iodide; 20000 nM) was 0.007 ± 0.023. The “level (log10)” value (Heptafluorobutyl iodide; 60000 nM) was 0.0065 ± 0.011, the “level (log10)” value (Octafluoroadipamide; 6700 nM) was -0.029 ± 0.14 and the “level (log10)” value (Octafluoroadipamide; 20000 nM) was 0.0205 ± 0.052. The “level (log10)” value (Octafluoroadipamide; 60000 nM) was 0.023 ± 0.047, the “level (log10)” value ([9]; 6700 nM) was -0.019 ± 0.02 and the “level (log10)” value ([9]; 20000 nM) was 0.0005 ± 0.036. For the same test system, the “level (log10)” value ([9]; 60000 nM) was 0.0255 ± 0.053, the “level (log10)” value ([10]; 6700 nM) was -0.005 ± 0.021 and the “level (log10)” value ([10]; 20000 nM) was 0.0045 ± 0.0092. For the same test system, the “level (log10)” value ([10]; 60000 nM) was 0.006 ± 0.017, the “level (log10)” value ([11]; 6700 nM) was 0.023 ± 0.047 and the “level (log10)” value ([11]; 20000 nM) was 0.0155 ± 0.086. For the same test system, the “level (log10)” value ([12]; 6700 nM) was -0.013 ± 0.028, the “level (log10)” value ([12]; 20000 nM) was -0.011 ± 0.0014 and the “level (log10)” value ([12]; 60000 nM) was 0.0065 ± 0.023. The “level (log10)” value ([13]; 6700 nM) was -0.0065 ± 0.013, the “level (log10)” value ([13]; 20000 nM) was -0.0105 ± 0.0064 and the “level (log10)” value ([14]; 6700 nM) was -0.006 ± 0.083. For the same test system, the “level (log10)” value ([14]; 20000 nM) was -0.0485 ± 0.12, the “level (log10)” value ([14]; 60000 nM) was -0.0485 ± 0.087 and the “level (log10)” value ([15]; 6700 nM) was 0.0215 ± 0.025. The “level (log10)” value ([15]; 20000 nM) was 0.0305 ± 0.0064 and the “level (log10)” value ([15]; 60000 nM) was 0.0275 ± 0.028.

For SAg:CD40, the “level (log10)” value ([1]; 6700 nM) was 0.002 ± 0.0071, the “level (log10)” value ([1]; 20000 nM) was -0.015 ± 0.0028 and the “level (log10)” value ([1]; 60000 nM) was -0.078 ± 0.034. For the same test system, the “level (log10)” value ([2]; 6700 nM) was -0.024, the “level (log10)” value ([2]; 20000 nM) was -0.0355 ± 0.012 and the “level (log10)” value (Hexafluoroamylene glycol; 6700 nM) was -0.0285 ± 0.03. The “level (log10)” value (Hexafluoroamylene glycol; 20000 nM) was -0.011 ± 0.044, the “level (log10)” value (Hexafluoroamylene glycol; 60000 nM) was -0.0215 ± 0.04 and the “level (log10)” value ([3]; 1500 nM) was -0.0185 ± 0.032. For the same test system, the “level (log10)” value ([3]; 4400 nM) was -0.042 ± 0.025, the “level (log10)” value ([3]; 13000 nM) was -0.103 ± 0.055 and the “level (log10)” value ([3]; 40000 nM) was -0.212 ± 0.055. For the same test system, the “level (log10)” value ([4]; 6700 nM) was -0.025 ± 0.017, the “level (log10)” value ([4]; 20000 nM) was -0.064 ± 0.0057 and the “level (log10)” value ([4]; 60000 nM) was -0.172 ± 0.0064. For the same test system, the “level (log10)” value [5] was -0.14 ± 0.033, the “level (log10)” value ([6]; 6700 nM) was -0.008 ± 0.013 and the “level (log10)” value ([6]; 20000 nM) was -0.0135 ± 0.012. For the same test system, the “level (log10)” value ([6]; 60000 nM) was -0.018 ± 0.013, the “level (log10)” value ([7]; 6700 nM) was -0.0275 ± 0.046 and the “level (log10)” value ([7]; 20000 nM) was -0.0285 ± 0.064. For the same test system, the “level (log10)” value ([7]; 60000 nM) was -0.053 ± 0.035, the “level (log10)” value (Nonafluoropentanamide; 6700 nM) was -0.0145 ± 0.033 and the “level (log10)” value (Nonafluoropentanamide; 20000 nM) was 0.0055 ± 0.013. For the same test system, the “level (log10)” value (Nonafluoropentanamide; 60000 nM) was 0.002 ± 0.018, the “level (log10)” value ([8]; 6700 nM) was -0.006 ± 0.058 and the “level (log10)” value ([8]; 20000 nM) was -0.005 ± 0.04. The “level (log10)” value ([8]; 60000 nM) was -0.038 ± 0.014, the “level (log10)” value (Heptafluorobutyl iodide; 6700 nM) was -0.027 ± 0.011 and the “level (log10)” value (Heptafluorobutyl iodide; 20000 nM) was -0.0445 ± 0.016. The “level (log10)” value (Heptafluorobutyl iodide; 60000 nM) was -0.024 ± 0.016, the “level (log10)” value (Octafluoroadipamide; 6700 nM) was -0.002 ± 0.0028 and the “level (log10)” value (Octafluoroadipamide; 20000 nM) was -0.001 ± 0.0014. The “level (log10)” value (Octafluoroadipamide; 60000 nM) was -0.001 ± 0.024, the “level (log10)” value ([9]; 6700 nM) was -0.01 ± 0.034 and the “level (log10)” value ([9]; 20000 nM) was -0.0015 ± 0.0064. For the same test system, the “level (log10)” value ([9]; 60000 nM) was -0.0235 ± 0.013, the “level (log10)” value ([10]; 6700 nM) was 0.002 ± 0.0071 and the “level (log10)” value ([10]; 20000 nM) was -0.003 ± 0.0071. The “level (log10)” value ([10]; 60000 nM) was -0.012 ± 0.0014, the “level (log10)” value ([11]; 6700 nM) was -0.0065 ± 0.013 and the “level (log10)” value ([11]; 20000 nM) was -0.007 ± 0.0085. For the same test system, the “level (log10)” value ([12]; 6700 nM) was -0.023 ± 0.0028, the “level (log10)” value ([12]; 20000 nM) was -0.0155 ± 0.019 and the “level (log10)” value ([12]; 60000 nM) was -0.02 ± 0.028. For the same test system, the “level (log10)” value ([13]; 6700 nM) was -0.0045 ± 0.021, the “level (log10)” value ([13]; 20000 nM) was -0.0045 ± 0.081 and the “level (log10)” value ([14]; 6700 nM) was 0.011 ± 0.017. For the same test system, the “level (log10)” value ([14]; 20000 nM) was 0.0025 ± 0.0064, the “level (log10)” value ([14]; 60000 nM) was -0.003 ± 0.02 and the “level (log10)” value ([15]; 6700 nM) was -0.024 ± 0.04. The “level (log10)” value ([15]; 20000 nM) was -0.0255 ± 0.028 and the “level (log10)” value ([15]; 60000 nM) was -0.0315 ± 0.012.
